# Values quoted from earlier work, collected in article PMC4226840, “An open-label study to determine the maximum tolerated dose of the multitargeted tyrosine kinase inhibitor CEP-11981 in patients with advanced cancer” (Investigational New Drugs, 2014).
# Columns and labels:
# [1] = tested on: treatment refractory metastatic colorectal cancer; set-up: method as in PMID 23177514; conditions: phase III, monotherapy, versus 5.0 months, P = 0.0052; cited from earlier work
# VEGFR-2 = conditions: HUVEC; cited from earlier work
SMILES,Overall survival [1] [months],IC50 (VEGFR-2) [nM]
CNC(=O)c1cc(Oc2ccc(NC(=O)Nc3ccc(Cl)c(C(F)(F)F)c3)c(F)c2)ccn1 [regorafenib],6.4,
